Values after ≈ are worked out from the molar mass of the structure shown.
Tests used:
[1] = tested on: V. harveyi; assay: MIC measurement of V. harveyi strains for quinolone antibiotics; type: cell-based, Vibrio harveyi; details: for MIC: Vibrio harveyi
Procedure: (§1) Using S. parauberis, E. tarda, and V. harveyi samples stored in the National Institute of Fisheries Science, MIC values were measured.

[2] = tested on: E. tarda; assay: MIC measurement of E. tarda strains for quinolone antibiotics; type: cell-based; details: Edwardsiella tarda
Procedure: as §1

[3] = tested on: S. parauberis; assay: MIC measurement of S. parauberis strains for quinolone antibiotic; type: cell-based; details: Streptococcus parauberis
Procedure: as §1

[4] = V. harveyi strain FP4541, gyrA Ile83
[5] = V. harveyi strain FP3023, gyrA Ser83
[6] = V. harveyi strain FP3031, gyrA Ser83
[7] = V. harveyi strain FP3457, gyrA Ser83
[8] = V. harveyi strain FP7021, gyrA Ser83
[9] = V. harveyi strain FP8045, gyrA Ser83
[10] = E. tarda strain FP2074, gyrA Arg83
[11] = E. tarda strain FP2130, gyrA Arg83
[12] = E. tarda strain FP2240, gyrA Ser83
[13] = E. tarda strain FP2243, gyrA Arg83
[14] = E. tarda strain FP3071, gyrA Arg83
[15] = E. tarda strain FP3139, gyrA Ile83
[16] = E. tarda strain FPa4445, gyrA Arg83

For `CCn1cc(C(=O)O)c(=O)c2cc3c(cc21)OCO3` [Oxolinic acid], the “susceptibility of the strain to the antibiotic, in words” value [1, 4] was “resistance”, the MIC [1, 5] was 1 µg/mL (≈ 3.83 µM) and the MIC [1, 6] was 1 µg/mL (≈ 3.83 µM). For the same compound, the MIC [1, 7] was 2 µg/mL (≈ 7.66 µM), the MIC [1, 4] was 8 µg/mL (≈ 30.6 µM) and the MIC [1, 8] was 1 µg/mL (≈ 3.83 µM). The MIC [1, 9] was 1 µg/mL (≈ 3.83 µM), the MIC [2, 10] was 4 µg/mL (≈ 15.3 µM) and the MIC [2, 11] was 64 µg/mL (≈ 245 µM). For the same compound, the MIC [2, 12] was under 0.25 µg/mL, the MIC [2, 13] was 16 µg/mL (≈ 61.2 µM) and the MIC [2, 14] was 8 µg/mL (≈ 30.6 µM). The MIC [2, 15] was 256 µg/mL (≈ 980 µM) and the MIC [2, 16] was 8 µg/mL (≈ 30.6 µM).

`CC1CCc2cc(F)cc3c(=O)c(C(=O)O)cn1c23` (centres unmarked) [Flumequine] was tested, and the “susceptibility of the strain to the antibiotic, in words” value [1, 4] was “resistance”, the MIC [1, 5] was 1 µg/mL (≈ 3.83 µM) and the MIC [1, 6] was 2 µg/mL (≈ 7.66 µM). For the same compound, the MIC [1, 7] was 2 µg/mL (≈ 7.66 µM), the MIC [1, 4] was 16 µg/mL (≈ 61.2 µM) and the MIC [1, 8] was 1 µg/mL (≈ 3.83 µM). It also gave an MIC [1, 9] of 2 µg/mL (≈ 7.66 µM), an MIC [2, 10] of 8 µg/mL (≈ 30.6 µM) and an MIC [2, 11] of 64 µg/mL (≈ 245 µM). It also gave an MIC [2, 12] of 1 µg/mL (≈ 3.83 µM), an MIC [2, 13] of 32 µg/mL (≈ 122 µM) and an MIC [2, 14] of 16 µg/mL (≈ 61.2 µM). It also gave an MIC [2, 15] of at least 512 µg/mL and an MIC [2, 16] of 32 µg/mL (≈ 122 µM).

Work on `O=C(O)c1cn(C2CC2)c2cc(N3CCNCC3)c(F)cc2c1=O` [Cipfloxacin, ciprofloxacin] yielded an MIC [2, 10] of 0.13 µg/mL (≈ 0.392 µM), an MIC [2, 11] of 1 µg/mL (≈ 3.02 µM) and an MIC [2, 12] of under 0.06 µg/mL. The MIC [2, 13] was 0.5 µg/mL (≈ 1.51 µM), the MIC [2, 14] was 0.25 µg/mL (≈ 0.754 µM) and the MIC [2, 15] was 4 µg/mL (≈ 12.1 µM). The MIC [2, 16] was 2 µg/mL (≈ 6.04 µM), the MIC ([3]; S. parauberis strain FP3059, gyrA Ser81) was 0.13 µg/mL (≈ 0.392 µM) and the MIC ([3]; S. parauberis strain FP3227, gyrA Ser81) was 1 µg/mL (≈ 3.02 µM). It also gave an MIC ([3]; S. parauberis strain FP4029, gyrA Ser81) of 0.5 µg/mL (≈ 1.51 µM), an MIC ([3]; S. parauberis strain FP4031, gyrA Ser81) of 0.25 µg/mL (≈ 0.754 µM) and an MIC ([3]; S. parauberis strain FP5227, gyrA Ser81) of 0.06 µg/mL (≈ 0.181 µM). It also gave an MIC ([3]; S. parauberis strain FPa4533, gyrA Leu81) of 2 µg/mL (≈ 6.04 µM).

— patent US20190177771A1, “PNA PROBE FOR DISCRIMINATION OF QUINOLONE ANTIBIOTIC RESISTANT BACTERIA AND METHOD FOR DISCRIMINATION OF ANTIBIOTIC RESISTANT BACTERIA USING THE SAME” (priority 2017, published 2019)
